# Measured values: US11597909B2, “Method for the formation of renal tubules” (LEIBNIZ-INSTITUT FÜR POLYMER-FORSCHUNG DRESDEN E.V., priority 2016, dated 2023)
# Tests used:
# [1] = tested on: tubule organoids from HK-2 cells; assay: Apoptosis by caspase-3 immunocytochemistry in tubule organoids; assay type: cell-based, human; settings: incubation with cisplatin, HK-2 tubule organoids
# Excerpt: (§1) The present invention can be used as an assay for nephrotoxicity.
# [2] = tested on: tubule organoids from HK-2 cells; assay: Expression of kidney injury biomarker KIM-1 in tubule structures; assay type: cell-based, human; settings: incubation with cisplatin, HK-2 tubule structures
# Excerpt: as §1
smiles,measurement,setting,value
N.N.[Cl][Pt][Cl] [cisplatin],"apoptosis (cell death), caspase-3 immunocytochemistry",[1],increase in apoptosis
same,expression of kidney injury biomarker KIM 1,[2],expressed the injury-indicating kidney biomarker KIM 1
